The values below come from patent US8575368B2, “Proanthocyanidin of cashew apple, composition containing proanthocyanidin, and application thereof” (Nichirei Biosciences, Inc., priority 2008, dated 2013).

Experiment [1] is described as follows: Assay of antioxidation activity via DPPH radical elimination. Particulars: 30° C., 30 minutes, absorbance 517 nm. The protocol: A solution of a stable radical, diphenyl-p-picrylhydradil (DPPH), in ethanol was used to evaluate the antioxidation activity. Ethanol (1,200 μl) and 400 μl of specimens (adjusted at an arbitrary concentration) were mixed with 1,600 μl of 250 mM acetate buffer (pH 5.5), and the mixture was preincubated at 30° C. for 5 minutes. A 500 μM DPPH/ethanol solution (800 μl) was added thereto, the resulting mixture was allowed to stand at 30° C. for 30 minutes, and the absorbance at 517 nm was assayed. When the control sample dissolved in ethanol was used as a specimen, 800 μl of ethanol, 400 μl of a solution of specimens in ethanol, and 400 μl of purified water were mixed, and the resulting mixture was preincubated at 30° C. for 5 minutes. A 500 μM DPPH/ethanol solution (800 μl) was added thereto, the resulting mixture was allowed to stand at 30° C. for 30 minutes, and the absorbance at 517 nm was assayed. A solution prepared in the same manner except for the use of purified water was used as a control sample. Based on the absorbance assayed, the percentage of radical elimination was determined by the following formula. Radical elimination(%)=(1−[absorbance of sample]/[absorbance of control])×100
The concentration of the sample in the sample solution was gradually changed to determine the percentage of radical elimination, the concentration of the sample solution at which the percentage of DPPH radical elimination became 50% was determined, and the determined value was designated as the 50% elimination concentration of DPPH radicals. As the value is reduced, the capacity for radical elimination is enhanced.
For orientation: Loss of DPPH colour is used to gauge radical scavenging.

The target of experiment [2] is lipase from Pseudomonas sp. (type XIII). The experiment is described as follows: Bacterial lipase inhibitory activity test (4-methylumbelliferyl oleate fluorescence). It counts as biochemical. Particulars: 0.1 μg/ml lipase solution. The text has this: In order to extensively evaluate lipase inhibitory activities of the product of the present invention and of a plurality of known components, lipase derived from commercially available bacteria of Pseudomonas (Pseudomonas sp.) was used. Pseudomonas is a […] of gram-negative aerobic bacteria. A representative example of well-known bacteria is P. aeruginosa. In the experiment, lipase from Pseudomonas sp. (type XIII, ≧15 units/solid, L9518, Sigma-Aldrich Japan) was used. This lipase is a very potent enzyme. From the preliminary inquiry to the inhibitory activity test, 0.1 μg/ml of a lipase solution was used. In the experiment, fractions obtained in Examples 2 and 3 containing proanthocyanidin polymers derived from cashew apple of the present invention were subjected to the assay. The following reagent was used as a control sample to assay lipase inhibitory activity.
Assay was carried out in accordance with Non-Patent Document 2 (J. Agric. Food Chem., 2007, 55, 4604-4609). A specimen diluent and a blank solution (a specimen diluent) were added to a 96-well fluorescence plate and then at 25 μl/well. A lipase solution prepared with the use of PBS(−) (lipase from Pseudomonas sp. Type XIII, SIGMA) was added to the test of the present invention at 25 μl/well and PBS(−) was added to the blind test group at 25 μl/well. A 0.1 mM fluorescent substrate solution (4-methylumbelliferyl oleate, Fluka) prepared with the use of PBS(−) was added thereto at 50 μl/well, and the reaction was then allowed to proceed for 20 minutes. A 0.1 M sodium citrate solution (pH 4.2) was added as a reaction terminator at 100 μl/well, and fluorescence intensity was assayed using a fluorescence plate reader (Ex 365 nm, Em 450 nm). Lipase inhibitory activity was determined by the following formula. 3,4-Dihydroxycinnamic acid and gallic acid were dissolved in an aqueous solution of 10% methanol, and a blank solvent was subjected to the assay with the use of an aqueous methanol solution at the same concentration.
<Calculation Formula> Lipase inhibitory activity(%)=(1−(A−B)/(C−D))×100 A: fluorescence intensity in the blind test using a sample solution B: fluorescence intensity in the test of the present invention using a sample solution C: fluorescence intensity in the blind test using a blank solution (a dilute solvent) D: fluorescence intensity in the test of the present invention using a blank solution (a dilute solvent)
Enzyme inhibitory activities of the sample solutions were assayed at a plurality of concentrations, the data were logarithmically plotted, and the concentration at which 50% of lipase activity was inhibited (IC50) was determined by the least-square method.
Using the powders prepared by fractionation via ultrafiltration and lyophilization in Example 3, the relationship between the molecular weight and the bacterial lipase inhibitory activity was examined. The lipase inhibitory activity test was carried out in the manner described in Example 9.

The target in experiment [3] is T1, lipase (Sus scrofa, UniProt P00591).
T1 sequence (P00591 1-450): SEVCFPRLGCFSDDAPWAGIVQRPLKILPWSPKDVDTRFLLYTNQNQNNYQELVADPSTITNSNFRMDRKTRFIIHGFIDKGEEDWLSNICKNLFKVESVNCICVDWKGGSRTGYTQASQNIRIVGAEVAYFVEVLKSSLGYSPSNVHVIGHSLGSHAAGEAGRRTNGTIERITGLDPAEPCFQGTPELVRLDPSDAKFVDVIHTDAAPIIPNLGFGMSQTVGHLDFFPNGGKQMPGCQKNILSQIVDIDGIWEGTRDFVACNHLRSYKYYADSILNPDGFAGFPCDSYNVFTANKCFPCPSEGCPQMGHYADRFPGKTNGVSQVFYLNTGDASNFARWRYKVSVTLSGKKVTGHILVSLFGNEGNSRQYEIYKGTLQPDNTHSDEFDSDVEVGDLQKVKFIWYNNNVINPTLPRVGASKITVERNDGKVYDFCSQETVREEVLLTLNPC
The conditions noted are these: Non-Patent Document 2; read-out: Lipase inhibitory activity (IC50) (converted); cited from earlier work.

In experiment [4] the target is T2, lipase from porcine pancreas Type II (Sus scrofa, UniProt P00591).
T2 construct: lipase from porcine pancreas Type II, SIGMA; purchased SIGMA; host or cells: porcine pancreas
Nature of the experiment: Lipase inhibitory activity assay (4-methylumbelliferyl oleate fluorescence). Type of experiment: biochemical. The conditions noted are these: final specimen concentration; porcine pancreatic lipase. How it is done: Assay was carried out in accordance with Non-Patent Document 2 (J. Agric. Food Chem., 2007, 55, 4604-4609). A specimen solution was added to a 96-well fluorescence plate at 25 μl/well. A lipase solution (lipase from porcine pancreas Type II, SIGMA) prepared with the use of PBS(−) was added to the plate of the test group at 25 μl/well and PBS(−) was added to the plate of the blind test group at 25 μl/well. A 0.1 mM fluorescent substrate solution (4-methylumbelliferyl oleate, Fluka) prepared with the use of PBS(−) was added thereto at 50 μl/well, and the reaction was then allowed to proceed for 20 minutes. A 0.1 M sodium citrate solution (pH 4.2) was added as a reaction terminator at 100 μl/well, and fluorescence intensity was assayed using a fluorescence plate reader (Ex 365 nm, Em 450 nm). In a blank test, samples of the test group and of the blind test group were prepared and fluorescence intensity was assayed in the same manner as described above, except that the same amount of a solvent used for the preparation of a specimen solution was used instead of “specimen solution.” The percentage of lipase inhibition was determined by the following formula. […]

The target of experiment [5] is T1, lipase. The conditions noted are these: cited from earlier work; for IC50: read-out: Lipase inhibitory activity (IC50).

Where a name gives a salt, the structure may show the parent alone. Read-outs that look alike come from different tables or passages of the source.

For `O=C(O)C=Cc1ccc(O)c(O)c1` [3,4-Dihydroxycinnamic acid], the “50% Elimination concentration of DPPH radicals” value (shortened to “50% Elimination concentration”) in experiment [1] came to 2.8 µg/mL. For the same compound, in experiment [2], the “Activity of bacterial lipase inhibition (IC50)” value amounted to 42.3 µg/mL.

Usually IC50 stands for the concentration that inhibits the measured activity by half. Regarding `O=C(/C=C/c1ccc(O)c(O)c1)O[C@@H]1C[C@](O)(C(=O)O)C[C@@H](O)[C@H]1O` [Chlorogenic acid, chlorogenic acid], the figures for the IC50 (at lipase [3]; in experiment [4]) were 169 µM and 219 µM, respectively. Further, in experiment [2], the “Activity of bacterial lipase inhibition (IC50)” value amounted to 69.2 µg/mL.

As for `O.O=C(O)c1cc(O)c(O)c(O)c1` [Gallic acid monohydrate], the “50% Elimination concentration” value in experiment [1] was 1.2 µg/mL. Besides, the “Activity of bacterial lipase inhibition (IC50)” value in experiment [2] came to 574.2 µg/mL.

As to `O=C1O[C@H]([C@@H](O)CO)C(O)=C1O` [L(+)-ascorbic acid], in experiment [1], the “50% Elimination concentration” value was 3.9 µg/mL.

For the compound `CN(C)[C@@H]1C(O)=C(C(N)=O)C(=O)[C@@]2(O)C(O)=C3C(=O)c4c(O)cccc4[C@@](C)(O)[C@H]3C[C@@H]12` [Tetracycline hydrochloride], in experiment [2], the “Activity of bacterial lipase inhibition (IC50)” value was determined as 134.6 µg/mL.

With “(−)-epigallocatechin 3-O-gallate [Epigallocatechin gallate]”, in experiment [1], the “50% Elimination concentration” value came to 2.0 µg/mL. Besides, the “Activity of bacterial lipase inhibition (IC50)” value in experiment [2] stood at 918.8 µg/mL. In addition, the “Lipase inhibitory activity (IC50)” value is 20.0 µg/mL in experiment [4] and 0.16 µg/mL at lipase [5] (Patent Document 5, value in brackets). For the same compound, the 50% inhibitory concentration (IC50) on lipase [5] (Patent Document 4) was 0.284 µM; on lipase [5] (Patent Document 5) it was 0.349 µM.
